Assay results from patent publication US7439271B2, “Reduction of hair growth” (The Gillette Company, priority 2001, dated 2008).

Key:
human hair follicles = test: Human hair follicle growth assay; type: cell-based; conditions: day 0 to day 6
Source text: Tissue source—Human skin was obtained from a plastic surgeon as a by-product of face-lift procedures. Immediately after removal, the skin was placed in Williams E medium containing antibiotics and refrigerated. The Williams E medium is a commercially obtained medium which has been formulated with essential nutrients for maintaining viability of tissues or cells such as of hair follicle in an in-vitro environment.
Hair Follicle Isolation and Culture—Human hair follicles in growth phase (anagen) were isolated from face-lift tissue under a dissecting scope using a scalpel and watchmakers forceps. The skin was sliced into thin strips exposing 2-3 rows of follicles that could readily be dissected. Follicles were placed into 0.5 ml Williams E medium supplemented with 2 mM L-glutamine, 10 μg/ml insulin, 100 ng/ml hydrocortisone, 100 units penicillin, 0.1 mg/ml streptomycin and 0.25 μg/ml amphotericin B. The follicles were incubated in 24 well plates (1 follicle/well) at 37° C. in an atmosphere of 5% CO2 and 95% air. Hair follicles were videorecorded in the 24-well plates under the dissecting scope under a power of 20×. Typically, hair follicle lengths were measured on day 0 (day follicles were placed in culture) and again on day 7. When testing compounds, the compound was included in the culture medium from time 0 and remained in the medium throughout the course of the experiment.
In this system follicle cells differentiate to form hair fiber and increase in length at a rate not dissimilar from that of humans, in vivo. Typically, hair fiber from these in-vitro follicles grow about 0.3 mm/day. […] This model of human hair growth is capable of identifying inhibitors of hair growth. The selective telomerase inhibitors -I, -IV and -V were obtained from Calbiochem, La Jolla, Calif. The data in Tables II-VI below show dose-dependent inhibition of human hair follicle growth by various compounds.

flank organ hair growth = test: Golden Syrian hamster assay (flank organ hair mass); type: in vivo; conditions: topical, thirteen applications; for % Inhibition (hair mass reduction): vs vehicle treated side
Source text: Male intact Golden Syrian hamsters are considered acceptable models for human beard hair growth in that they display oval shaped flank organs, one on each side, each about 8 mm. in major diameter. These organs produce fine light colored hair typical of the animal pelage found on the body. In response to androgens the flank organs produce dark coarse hair similar to male human beard hair. To evaluate the effectiveness of a composition in reducing hair growth, the flank organs of each of a group of hamsters are depilated by applying a thioglycolate based chemical depilatory (Surgex) and/or shaved. To one organ of each animal 10 μl. of vehicle alone once a day is applied, while to the other organ of each animal an equal amount of vehicle containing the compound under evaluation is applied. After thirteen applications (one application per day for five days a week), the flank organs are shaved and the amount of recovered hair (hair mass) from each is weighed. Percent-reduction of hair growth is calculated by subtracting the hair mass (mg) value of the test compound treated side from the hair mass value of the vehicle treated side; the delta value obtained is then divided by the hair mass value of the vehicle treated side, and the resultant number is multiplied by 100.
The above-described assay will be referred to herein as the “Golden Syrian hamster” assay. Preferred compositions provide a reduction in hair growth of at least about 15% and more preferably at least about 20%, when tested in the Golden Syrian hamster assay. Compositions described in Example 1 (above) were tested in the Golden Syrian hamster assay. […] AZT, a well-characterized inhibitor of reverse transcriptase, inhibits telomerase by blocking the […] of the enzyme.

SMILES	Length Increase (mm) (human hair follicles; 100 μM)	% Inhibition of human hair growth (human hair follicles; 10 μM)	Length Increase (mm) (human hair follicles; 10 μM)	% Inhibition of human hair growth (human hair follicles; 100 μM)	also measured
CC1COc2c(N3CCN(C)CC3)c(F)cc3c(=O)c(C(=O)O)cn1c23 (centres unmarked) [Ofloxacin, ofloxacin]	1.16 ± .12 mm	–	–	–	Length Increase (mm) (human hair follicles; 0.01 μM): 1.51 ± .24 mm; Length Increase (mm) (human hair follicles; 0.1 μM): 1.16 ± .12 mm; Length Increase (mm) (human hair follicles; 1.0 μM, separate control 1.40 ± .17 mm): 0.43 ± .11 mm; inhibition at 0.01 µM (human hair follicles; Homo sapiens, 0.01 μM): 10 ± 14%; inhibition at 0.1 µM (human hair follicles; Homo sapiens, 0.1 μM): 30 ± 7%; inhibition at 1 µM (human hair follicles; Homo sapiens, 1.0 μM, separate control 1.40 ± .17 mm): 69 ± 8%; inhibition at 100 µM (human hair follicles; Homo sapiens, 100 μM): 31 ± 7%; Left (mg): hair mass for vehicle with test compound (flank organ hair growth; dose 5%): 1.56 ± .24 mg; % Inhibition (hair mass reduction) (flank organ hair growth; dose 5%): 39 ± 7%
C[n+]1ccc(-c2c3nc(c(-c4cc[n+](C)cc4)c4ccc([nH]4)c(-c4cc[n+](C)cc4)c4nc(c(-c5cc[n+](C)cc5)c5ccc2[nH]5)C=C4)C=C3)cc1 [TMPyP4, meso-5,10,15,20-tetrakis-(N-methyl-4-pyridy)porphine]	–	–	–	–	% Inhibition of human hair growth (human hair follicles; 73 μM): 52 ± 9%; Length Increase (mm) (human hair follicles; 73 μM): .468 ± .09 mm; Left (mg): hair mass for vehicle with test compound (flank organ hair growth; dose 1%): 1.73 ± .23 mg; % Inhibition (hair mass reduction) (flank organ hair growth; dose 1%): 28 ± 8%
O=C1c2ccc3c4ccc5c6c(ccc(c7ccc(c2c37)C(=O)N1CCN1CCCCC1)c64)C(=O)N(CCN1CCCCC1)C5=O [Telomerase Inhibitor IV, N,N′-bis[2-(1-piperidino)ethyl]-3,4,9,10-perylenetetracarboxylic diimide]	0.80 ± .12 mm	10 ± 10%	1.39 ± .16 mm	48 ± 8%	–
C[N+]1(CCC(=O)Nc2ccc3c(c2)C(=O)c2ccc(NC(=O)CC[N+]4(C)CCCCC4CO)cc2C3=O)CCCCC1CO.[I-].[I-] (centres unmarked) [Telomerase Inhibitor I]	.286 ± .09 mm	34 ± 6%	1.18 ± .10 mm	84 ± 5%	–
O=C(CCN1CCCCC1)Nc1ccc2c(c1)C(=O)c1ccc(NC(=O)CCN3CCCCC3)cc1C2=O [Telomerase Inhibitor V, 2,6-bis[3-(N-piperidino)propionamido]anthracene-9,10-dione]	0.25 ± .30 mm	14 ± 8%	1.32 ± .13 mm	68 ± 19%	–
